Assay results reported in the kinase profiling compilation of Christmann-Franck et al. (2016).

How the values were obtained:
Test in all cases: Caliper, Mobility shift assay off-chip
PDPK1 (human) = PDPK1 (human) (UniProt O15530)
ROS1 (human) = ROS1 (human) (UniProt P08922)
FES (human) = FES (human) (UniProt P07332)
JAK1 JH1 JH2 (human) = JAK1 JH1 JH2 (human) (UniProt P23458)
DDR2 (human) = DDR2 (human) (UniProt Q16832)
GSG2 (human) = GSG2 (human) (UniProt Q8TF76)
FLT3 (human) = FLT3 (human) (UniProt P36888)
FER (human) = FER (human) (UniProt P16591)
FER (human), sequence (P16591 whole entry, looked up): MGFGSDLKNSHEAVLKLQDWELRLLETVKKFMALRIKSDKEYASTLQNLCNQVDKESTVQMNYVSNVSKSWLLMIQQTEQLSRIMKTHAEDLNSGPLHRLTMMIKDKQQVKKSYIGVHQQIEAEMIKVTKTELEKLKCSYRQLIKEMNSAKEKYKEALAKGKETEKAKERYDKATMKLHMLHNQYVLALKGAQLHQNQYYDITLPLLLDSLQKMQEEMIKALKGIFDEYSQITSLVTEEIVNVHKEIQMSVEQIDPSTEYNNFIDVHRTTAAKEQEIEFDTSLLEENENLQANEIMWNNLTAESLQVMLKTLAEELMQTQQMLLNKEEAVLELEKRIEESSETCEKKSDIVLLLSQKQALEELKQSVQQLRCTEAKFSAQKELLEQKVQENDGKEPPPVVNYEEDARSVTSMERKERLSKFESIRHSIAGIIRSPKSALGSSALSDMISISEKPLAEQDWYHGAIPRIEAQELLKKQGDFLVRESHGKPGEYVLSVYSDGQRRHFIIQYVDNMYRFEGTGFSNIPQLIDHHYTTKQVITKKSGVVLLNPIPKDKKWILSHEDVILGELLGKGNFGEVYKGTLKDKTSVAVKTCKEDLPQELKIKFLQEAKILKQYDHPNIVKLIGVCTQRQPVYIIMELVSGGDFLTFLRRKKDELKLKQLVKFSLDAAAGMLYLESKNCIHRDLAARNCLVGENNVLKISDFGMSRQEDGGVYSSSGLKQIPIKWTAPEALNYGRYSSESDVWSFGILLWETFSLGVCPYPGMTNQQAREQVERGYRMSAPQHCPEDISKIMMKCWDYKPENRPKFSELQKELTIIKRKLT

TNK2 (human) = TNK2 (human) (UniProt Q07912)
TNK2 (human), sequence (Q07912 whole entry, looked up): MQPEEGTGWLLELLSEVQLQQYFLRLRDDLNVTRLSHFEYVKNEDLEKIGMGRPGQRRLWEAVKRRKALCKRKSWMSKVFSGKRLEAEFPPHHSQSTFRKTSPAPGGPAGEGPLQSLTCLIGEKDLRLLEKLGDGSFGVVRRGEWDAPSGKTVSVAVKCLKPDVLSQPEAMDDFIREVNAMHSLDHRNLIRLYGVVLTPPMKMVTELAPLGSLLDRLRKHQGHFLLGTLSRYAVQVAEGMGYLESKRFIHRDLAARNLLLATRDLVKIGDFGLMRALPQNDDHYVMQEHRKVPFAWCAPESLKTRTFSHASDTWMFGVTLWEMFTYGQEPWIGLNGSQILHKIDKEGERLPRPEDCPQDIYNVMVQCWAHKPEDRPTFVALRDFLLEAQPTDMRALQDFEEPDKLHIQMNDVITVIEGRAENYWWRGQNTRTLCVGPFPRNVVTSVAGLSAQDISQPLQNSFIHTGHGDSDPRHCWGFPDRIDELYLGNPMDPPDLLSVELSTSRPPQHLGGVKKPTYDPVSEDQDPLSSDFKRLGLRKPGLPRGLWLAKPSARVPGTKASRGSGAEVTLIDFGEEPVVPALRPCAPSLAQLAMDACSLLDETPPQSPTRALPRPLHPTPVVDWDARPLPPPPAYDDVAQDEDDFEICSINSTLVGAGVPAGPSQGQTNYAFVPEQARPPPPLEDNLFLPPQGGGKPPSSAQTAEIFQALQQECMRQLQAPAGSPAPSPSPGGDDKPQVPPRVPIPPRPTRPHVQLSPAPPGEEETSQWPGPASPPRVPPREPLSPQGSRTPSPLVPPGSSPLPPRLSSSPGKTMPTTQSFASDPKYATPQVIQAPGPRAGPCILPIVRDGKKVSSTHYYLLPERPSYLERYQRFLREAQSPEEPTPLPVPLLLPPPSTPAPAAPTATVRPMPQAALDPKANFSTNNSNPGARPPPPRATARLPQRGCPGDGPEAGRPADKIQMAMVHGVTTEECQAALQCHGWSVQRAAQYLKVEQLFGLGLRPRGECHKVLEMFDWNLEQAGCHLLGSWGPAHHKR

CDC42BPB (human) = CDC42BPB (human) (UniProt Q9Y5S2)
MERTK (human) = MERTK (human) (UniProt Q12866)
MERTK (human), sequence (Q12866 whole entry, looked up): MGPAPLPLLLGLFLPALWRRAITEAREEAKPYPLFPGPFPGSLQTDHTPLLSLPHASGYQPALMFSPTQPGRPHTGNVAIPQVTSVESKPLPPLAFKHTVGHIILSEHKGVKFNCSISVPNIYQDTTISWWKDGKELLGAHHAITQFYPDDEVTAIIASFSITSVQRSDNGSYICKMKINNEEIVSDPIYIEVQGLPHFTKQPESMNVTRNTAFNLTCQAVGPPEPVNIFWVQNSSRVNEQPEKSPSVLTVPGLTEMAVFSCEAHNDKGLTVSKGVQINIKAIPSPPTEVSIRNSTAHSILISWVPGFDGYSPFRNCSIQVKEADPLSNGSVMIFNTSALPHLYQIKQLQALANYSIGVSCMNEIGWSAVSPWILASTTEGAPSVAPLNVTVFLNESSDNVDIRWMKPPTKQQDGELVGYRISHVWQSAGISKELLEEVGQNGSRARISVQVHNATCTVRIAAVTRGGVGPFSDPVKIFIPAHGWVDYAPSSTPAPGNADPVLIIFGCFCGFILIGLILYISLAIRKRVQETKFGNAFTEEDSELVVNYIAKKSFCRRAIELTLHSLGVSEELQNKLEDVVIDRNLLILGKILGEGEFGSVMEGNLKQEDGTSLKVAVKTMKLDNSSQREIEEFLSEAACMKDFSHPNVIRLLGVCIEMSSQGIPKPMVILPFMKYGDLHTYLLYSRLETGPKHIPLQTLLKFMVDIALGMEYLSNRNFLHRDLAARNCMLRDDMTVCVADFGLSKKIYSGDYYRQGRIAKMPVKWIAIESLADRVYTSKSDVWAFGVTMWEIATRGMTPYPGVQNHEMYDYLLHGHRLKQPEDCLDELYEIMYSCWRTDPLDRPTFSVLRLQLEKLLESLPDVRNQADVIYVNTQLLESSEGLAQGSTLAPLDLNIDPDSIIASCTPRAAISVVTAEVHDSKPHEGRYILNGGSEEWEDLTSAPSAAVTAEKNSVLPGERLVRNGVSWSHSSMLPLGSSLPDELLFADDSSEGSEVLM

MAP4K4 (human) = MAP4K4 (human) (UniProt O95819)
CAMK2B (human) = CAMK2B (human) (UniProt Q13554)
TBK1 (human) = TBK1 (human) (UniProt Q9UHD2)
PAK4 (human) = PAK4 (human) (UniProt O96013)
JAK3 JH1 JH2 (human) = JAK3 JH1 JH2 (human) (UniProt P52333)
CAMK2D (human) = CAMK2D (human) (UniProt Q13557)
PAK6 (human) = PAK6 (human) (UniProt Q9NQU5)
CSNK1G3 (human) = CSNK1G3 (human) (UniProt Q9Y6M4)
TAOK2 (human) = TAOK2 (human) (UniProt Q9UL54)
DYRK1B (human) = DYRK1B (human) (UniProt Q9Y463)
PRKCI (human) = PRKCI (human) (UniProt P41743)
PRKCH (human) = PRKCH (human) (UniProt P24723)
EPHB2 (human) = EPHB2 (human) (UniProt P29323)
HIPK2 (human) = HIPK2 (human) (UniProt Q9H2X6)
FGR (human) = FGR (human) (UniProt P09769)
FGR (human), sequence (P09769 whole entry, looked up): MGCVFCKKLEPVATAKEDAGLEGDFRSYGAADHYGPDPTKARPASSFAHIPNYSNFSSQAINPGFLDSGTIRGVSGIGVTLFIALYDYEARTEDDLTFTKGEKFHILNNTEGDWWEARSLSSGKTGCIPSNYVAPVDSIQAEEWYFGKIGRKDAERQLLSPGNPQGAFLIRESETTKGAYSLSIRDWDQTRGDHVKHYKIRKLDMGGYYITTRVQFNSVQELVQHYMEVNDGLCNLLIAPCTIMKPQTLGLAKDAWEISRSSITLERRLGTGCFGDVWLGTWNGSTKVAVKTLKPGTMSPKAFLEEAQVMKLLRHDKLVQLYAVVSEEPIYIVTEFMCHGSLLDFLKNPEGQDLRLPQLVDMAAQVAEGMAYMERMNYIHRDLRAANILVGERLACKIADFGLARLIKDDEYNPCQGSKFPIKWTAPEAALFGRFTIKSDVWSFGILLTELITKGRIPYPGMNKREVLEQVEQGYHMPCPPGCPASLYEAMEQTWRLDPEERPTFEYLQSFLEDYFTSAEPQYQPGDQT

SLK (human) = SLK (human) (UniProt Q9H2G2)
SLK (human), sequence (Q9H2G2 whole entry, looked up): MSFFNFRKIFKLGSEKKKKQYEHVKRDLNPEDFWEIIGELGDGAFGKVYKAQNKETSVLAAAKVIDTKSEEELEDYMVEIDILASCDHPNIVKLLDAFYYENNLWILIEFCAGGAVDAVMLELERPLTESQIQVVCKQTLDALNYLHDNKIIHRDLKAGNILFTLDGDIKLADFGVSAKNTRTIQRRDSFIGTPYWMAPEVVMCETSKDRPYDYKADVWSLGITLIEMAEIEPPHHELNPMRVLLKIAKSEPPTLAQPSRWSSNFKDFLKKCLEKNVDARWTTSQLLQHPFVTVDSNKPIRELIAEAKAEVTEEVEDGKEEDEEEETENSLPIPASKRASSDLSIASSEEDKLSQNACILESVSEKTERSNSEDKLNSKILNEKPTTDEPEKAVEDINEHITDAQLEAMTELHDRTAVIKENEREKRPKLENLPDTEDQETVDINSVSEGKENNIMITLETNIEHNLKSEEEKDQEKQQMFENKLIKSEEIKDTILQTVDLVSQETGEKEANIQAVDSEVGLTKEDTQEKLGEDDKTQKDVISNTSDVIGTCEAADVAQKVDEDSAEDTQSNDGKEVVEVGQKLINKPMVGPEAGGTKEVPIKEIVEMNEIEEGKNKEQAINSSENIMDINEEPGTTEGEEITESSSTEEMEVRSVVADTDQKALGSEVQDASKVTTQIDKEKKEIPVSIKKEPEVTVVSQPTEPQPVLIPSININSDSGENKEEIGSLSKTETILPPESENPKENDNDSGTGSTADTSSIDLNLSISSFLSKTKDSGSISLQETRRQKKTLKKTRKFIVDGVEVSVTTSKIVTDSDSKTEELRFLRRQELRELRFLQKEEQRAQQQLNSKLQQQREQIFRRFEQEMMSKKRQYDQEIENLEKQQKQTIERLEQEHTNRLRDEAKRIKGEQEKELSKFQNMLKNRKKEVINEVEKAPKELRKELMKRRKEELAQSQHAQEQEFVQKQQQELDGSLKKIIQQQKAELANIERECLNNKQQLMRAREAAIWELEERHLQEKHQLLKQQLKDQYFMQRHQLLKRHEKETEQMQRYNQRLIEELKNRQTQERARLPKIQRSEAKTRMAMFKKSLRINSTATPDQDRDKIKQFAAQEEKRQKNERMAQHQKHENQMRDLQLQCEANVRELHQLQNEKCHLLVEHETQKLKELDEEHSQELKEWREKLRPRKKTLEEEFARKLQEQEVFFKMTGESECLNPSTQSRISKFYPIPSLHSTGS

TAB1 (human) = TAB1 (human) (UniProt Q15750)
EPHA4 (human) = EPHA4 (human) (UniProt P54764)
MAPKAPK3 (human) = MAPKAPK3 (human) (UniProt Q16644)
MAPKAPK3 (human), sequence (Q16644 whole entry, looked up): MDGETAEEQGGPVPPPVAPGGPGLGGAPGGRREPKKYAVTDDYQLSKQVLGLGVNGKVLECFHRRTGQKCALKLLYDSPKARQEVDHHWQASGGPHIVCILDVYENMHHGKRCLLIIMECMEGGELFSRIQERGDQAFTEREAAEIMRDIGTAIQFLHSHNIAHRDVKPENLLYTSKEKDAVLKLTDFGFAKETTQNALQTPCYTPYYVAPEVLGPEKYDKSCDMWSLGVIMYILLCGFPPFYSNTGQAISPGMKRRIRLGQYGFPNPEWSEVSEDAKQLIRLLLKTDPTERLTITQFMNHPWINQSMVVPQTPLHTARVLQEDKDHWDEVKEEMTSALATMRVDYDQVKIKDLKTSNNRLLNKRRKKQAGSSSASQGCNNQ

CAMK2G (human) = CAMK2G (human) (UniProt Q13555)
RPS6KA6 KD1 KD2 (human) = RPS6KA6 KD1 KD2 (human) (UniProt Q9UK32)
MKNK2 (human) = MKNK2 (human) (UniProt Q9HBH9)
CHEK2 (human) = CHEK2 (human) (UniProt O96017)

inhibition (PDPK1 (human); compound 0.02 µM): -2.1%
inhibition (PDPK1 (human); compound 0.2 µM): -4.8%
inhibition (ROS1 (human); compound 0.02 µM): 0.6%
inhibition (ROS1 (human); compound 0.2 µM): 0.4%
inhibition (FES (human); compound 0.02 µM): 6.9%
inhibition (FES (human); compound 0.2 µM): 7.8%
inhibition (JAK1 JH1 JH2 (human); compound 0.02 µM): -2.9%
inhibition (JAK1 JH1 JH2 (human); compound 0.2 µM): -3.6%
inhibition (DDR2 (human); compound 0.02 µM): 26.6%
inhibition (DDR2 (human); compound 0.2 µM): 82.1%
inhibition (GSG2 (human); compound 0.02 µM): 0.4%
inhibition (GSG2 (human); compound 0.2 µM): -0.4%
inhibition (FLT3 (human); compound 0.02 µM): 10%
inhibition (FLT3 (human); compound 0.2 µM): 9.8%
inhibition (FER (human); compound 0.02 µM): 8.7%
inhibition (FER (human); compound 0.2 µM): 11.2%
inhibition (TNK2 (human); compound 0.02 µM): -6.7%
inhibition (TNK2 (human); compound 0.2 µM): -5.4%
inhibition (CDC42BPB (human); compound 0.02 µM): -8.9%
inhibition (CDC42BPB (human); compound 0.2 µM): 4.2%
inhibition (MERTK (human); compound 0.02 µM): 3.6%
inhibition (MERTK (human); compound 0.2 µM): 5.9%
inhibition (MAP4K4 (human); compound 0.02 µM): -0.2%
inhibition (MAP4K4 (human); compound 0.2 µM): 15.5%
inhibition (CAMK2B (human); compound 0.02 µM): -4.3%
inhibition (CAMK2B (human); compound 0.2 µM): -6%
inhibition (TBK1 (human); compound 0.02 µM): -1.8%
inhibition (TBK1 (human); compound 0.2 µM): -1.6%
inhibition (PAK4 (human); compound 0.02 µM): 6.5%
inhibition (PAK4 (human); compound 0.2 µM): 0%
inhibition (JAK3 JH1 JH2 (human); compound 0.02 µM): 5.1%
inhibition (JAK3 JH1 JH2 (human); compound 0.2 µM): 4%
inhibition (CAMK2D (human); compound 0.02 µM): 3.9%
inhibition (CAMK2D (human); compound 0.2 µM): 3.9%
inhibition (PAK6 (human); compound 0.02 µM): -2.2%
inhibition (PAK6 (human); compound 0.2 µM): -4.9%
inhibition (CSNK1G3 (human); compound 0.02 µM): 2.8%
inhibition (CSNK1G3 (human); compound 0.2 µM): -1.8%
inhibition (TAOK2 (human); compound 0.02 µM): 3.1%
inhibition (TAOK2 (human); compound 0.2 µM): 3.3%
inhibition (DYRK1B (human); compound 0.02 µM): 6.7%
inhibition (DYRK1B (human); compound 0.2 µM): -1.1%
inhibition (PRKCI (human); compound 0.02 µM): 4.3%
inhibition (PRKCI (human); compound 0.2 µM): 6%
inhibition (PRKCH (human); compound 0.02 µM): 6%
inhibition (PRKCH (human); compound 0.2 µM): 4.7%
inhibition (EPHB2 (human); compound 0.02 µM): -4.3%
inhibition (EPHB2 (human); compound 0.2 µM): 8.7%
inhibition (HIPK2 (human); compound 0.02 µM): -1.7%
inhibition (HIPK2 (human); compound 0.2 µM): 0.7%
inhibition (FGR (human); compound 0.02 µM): 12.6%
inhibition (FGR (human); compound 0.2 µM): 27.6%
inhibition (SLK (human); compound 0.02 µM): 37.5%
inhibition (SLK (human); compound 0.2 µM): 85%
inhibition (TAB1 (human); compound 0.02 µM): 5.3%
inhibition (TAB1 (human); compound 0.2 µM): 8.9%
inhibition (EPHA4 (human); compound 0.02 µM): -4.1%
inhibition (EPHA4 (human); compound 0.2 µM): -2.4%
inhibition (MAPKAPK3 (human); compound 0.02 µM): 1.1%
inhibition (MAPKAPK3 (human); compound 0.2 µM): -0.2%
inhibition (CAMK2G (human); compound 0.02 µM): 0.2%
inhibition (CAMK2G (human); compound 0.2 µM): 1.5%
inhibition (RPS6KA6 KD1 KD2 (human); compound 0.02 µM): 15%
inhibition (RPS6KA6 KD1 KD2 (human); compound 0.2 µM): -2.3%
inhibition (MKNK2 (human); compound 0.02 µM): -3.7%
inhibition (MKNK2 (human); compound 0.2 µM): 1.2%
inhibition (CHEK2 (human); compound 0.02 µM): -1.2%
inhibition (CHEK2 (human); compound 0.2 µM): 3.6%
SMILES: COc1cc2c(Oc3ccc4[nH]c(C)cc4c3F)ncnc2cc1OCCCN1CCCC1
